Data reported in patent US7071211B2, “Small organic molecules that increase the activity of gelatinase a in ocular cells” (Bausch & Lomb Inc., priority 2002, dated 2006).

Key:
MT-MMP [1] = experiment: Thiopeptolide assay of cell-associated gelatinase activity ascribed to MT-MMP in TM cells; assay type: cell-based, Rhesus monkey; conditions: for Percent Activation Over control value: 48 hours incubation, OD 410 nm vs CACM control
Procedure: Two days before molecule testing, the medium is replace by a defined, serum-free medium such as Minimum Essential Medium (MEM) containing defined supplements as described by Schachtschabel and Binninger, Z.f.Gerontol. […] Unless specifically noted, all molecules tested were prepared as stock solutions in dimethyl sulfoxide (DMSO) with a final concentration of 10 mg/ml. The stocks were stored in a dessicator at −20 degrees Celsius. In testing the molecules, the molecules were diluted to final concentrations of 0.3 ug/ml and 15 ug/ml in a simplified culture medium based on Ames' medium, called Concanavalin A (Con A) conditioning medium (CACM). The monkey TM cells were incubated with the test molecules for 48 hours. Control medium of CACM plus DMSO and a positive control with 5 ug/ml Con A plus DMSO were run in parallel. […] Next 100 uL of a doubly (2×) concentrated mixture of the thiopeptolide substrate (from a forty times (40×) concentrated DMSO stock, to give 1 mmol/L final concentration) freshly combined with the thiol reagent (5,5′dithiobis(2-nitrobenzoic acid (DTNB) from a twenty times (20×) concentrated DMSO stock to give 1 mmol/L) were added to each well and were incubated at 37 degrees Celsius for two hours with gentle agitation.
At the end of the incubation period, by means of a spectrophoto-metric plate reader, the optical density (OD) at 410 nm was determined for each well after automatic subtraction of a blank value for a well containing reaction mixture but without cells. The average OD at the two-hour end point for each test molecule at all concentrations in triplicate was calculated. This calculation was interpreted to be a measure of cell-associated MT-MMP level, equivalently defined as either its activity (a catalytic property of the enzyme) or expression (number of functional molecules). The percent difference in OD for each sample compared to the CACM control reflects the effectiveness of each test molecule or combination of molecules in eliciting increases in MT-MMP levels. As an alternate to the end point OD reading, one may use the mean rate of appearance of the reaction product (mean V), calculated from the best linear fit of the data to absorbance vs. time.
TM cells were exposed to molecules and combinations of molecules by means of simultaneous addition, from separate stocks, to incubation medium.

MT-MMP [2] = experiment: Co-activation thiopeptolide assay (test compound with Con A or a second test compound) in TM cells; assay type: cell-based, Rhesus monkey
Description: Concanavalin A (Con A) binds to mannose groups on cell membrane gycoproteins. Because of its tetravalent nature, Con A binding leads to oligomerization of these “receptors,” possibly in the form of heterogeneous aggregates. Con A stimulation elicits increased expression of MT-MMP with concomitant ability to activate proGelA. The response, as measured by the magnitude of zymographic bands and by thiopeptolide assay, is dose-dependent. Thus the effects of co-activation using a submaximal dose of Con A plus treatment with a small molecule that may or may not be active by itself, are measured in the subject activation assay.
For the coactivation assays, following the preliminary steps set forth above preceding incubation with test compounds in Example 1, cells subsequently undergo one of the following protocols. • Protocol 1. Cells are incubated with a particular test compound for twenty-four hours. This incubation period is followed by a second twenty-four hour incubation period, in which the culture medium containing the first test compound is completely replaced by medium containing 5 ug/ml Con A. • Protocol 2. Cells are incubated with a particular first test compound for twenty-four hours, followed by a second forty-eight hour incubation in which the medium containing the first test compound is completely replaced by medium containing either Con A, as described above, or a second test compound. • Protocol 3. Cells are incubated with a combination of a test compound together with 5 ug/ml Con A for forty-eight hours.
Two controls, with or without 5 ug/ml Con A are run in parallel as described in Example 1. After incubation with these agents, cells are processed in equivalently to those in Example 1. Instead of comparison of the OD values with a CACM control, the results are compared with samples using Con A alone, or with a single test compound as described in Protocol 2 above, as set forth in Table 5 below.

MT1-MMP [3] = conditions: human cervical fibroblasts; Ito et al. 1998; cited from earlier work
MT1-MMP [4] = conditions: Alexander and Acott 1999; cited from earlier work

COc1ccc(/C(C#N)=N/OC(=O)N2CCCCC2)cc1OC [Molecule 1]
Percent Activation Over control value (MT-MMP [1]; Conc. 0.9 umol/L): 48.1%
Percent Activation Over control value (MT-MMP [1]; Conc. 47.31 umol/L): 260.4%

N#C/C(=N\OC(=O)N1CCCCC1)c1c(F)cccc1F [Molecule 2]
Percent Activation Over control value (MT-MMP [1]; Conc. 1.0 umol/L): 33.8%
Percent Activation Over control value (MT-MMP [1]; Conc. 51.1.1 umol/L): 420.5%

CC(C)N(CC(O)COc1cccc2ccccc12)C(N)=O (stereo not shown) [Molecule 4]
Percent Activation Over control value (MT-MMP [1]; Conc. 1.0 umol/L): 5.9%
Percent Activation Over control value (MT-MMP [1]; Conc. 49.6 umol/L): 73.4%

CC(C)N(CCCOc1cccc2ccccc12)C(N)=O [Molecule 6]
Percent Activation Over control value (MT-MMP [1]; Conc. 1.0 umol/L): 2.2%
Percent Activation Over control value (MT-MMP [1]; Conc. 52.4 umol/L): 207.9%
Activity (% increase over Con A above, or as otherwise noted) (MT-MMP [2]; Protocol 1 (24 h test compound, then 24 h 5 ug/ml Con A), Conc. 104.8 umol/L with Con A): 183.9%
Activity (% increase over Con A above, or as otherwise noted) (MT-MMP [2]; Protocol 2 (24 h test compound, then 48 h Con A), Conc. 34.9 umol/L with Con A): 49.0%
Activity (% increase over Con A above, or as otherwise noted) (MT-MMP [2]; Protocol 2 (24 h test compound, then 48 h Con A), Conc. 100.0 umol/L with Con A): 70.9%

CNC(=O)N(CCOc1cccc(Cl)c1Cl)C(C)C [Molecule 7]
Percent Activation Over control value (MT-MMP [1]; Conc. 1.0 umol/L): (−7.9) Percent
Percent Activation Over control value (MT-MMP [1]; Conc. 49.2 umol/L): 274.0%
Activity (% increase over Con A above, or as otherwise noted) (MT-MMP [2]; Protocol 2 (24 h test compound, then 48 h Con A), Conc. 49.1 umol/L with Con A): 59.8%

Cc1cccc(Cl)c1/C=N/NC(=N)N [Molecule 8]
Percent Activation Over control value (MT-MMP [1]; Conc. 2.6 umol/L): 2.9%
Percent Activation Over control value (MT-MMP [1]; Conc. 12.98 umol/L): 12.7%
Percent Activation Over control value (MT-MMP [1]; Conc. 64.91 umol/L): 54.3%
Percent Activation Over control value (MT-MMP [1]; Conc. 129.81 umol/L): 106.8%

CC/C(=N\NC(=N)N)c1ccccc1 [Molecule 9]
Percent Activation Over control value (MT-MMP [1]; Conc. 1.18 umol/L): 21.4%
Percent Activation Over control value (MT-MMP [1]; Conc. 118.44 umol/L): 82.4%

CSC(=N)N/N=C/c1c(Cl)cccc1Cl [Molecule 11]
Percent Activation Over control value (MT-MMP [1]; Conc. 1.14 umol/L): (−20.9) Percent
Percent Activation Over control value (MT-MMP [1]; Conc. 57.22 umol/L): 88.1%

N=C(N)NNC(O)c1c(Cl)cccc1Cl (stereo not shown) [Molecule 12]
Percent Activation Over control value (MT-MMP [1]; Conc. 1.05 umol/L): 3.2%
Percent Activation Over control value (MT-MMP [1]; Conc. 52.53 umol/L): 101.6%

CC(C#N)c1ccc2c(c1)N(C)C1C=CC=CC1S2 (stereo not shown) [Molecule 13]
Percent Activation Over control value (MT-MMP [1]; Conc. 1.1 umol/L): 74.6%
Percent Activation Over control value (MT-MMP [1]; Conc. 55.9 umol/L): 68.5%
Activity (% increase over Con A above, or as otherwise noted) (MT-MMP [2]; Protocol 1 (24 h test compound, then 24 h 5 ug/ml Con A), Conc. 1.1 umol/L with Con A): 18.1%
Activity (% increase over Con A above, or as otherwise noted) (MT-MMP [2]; Protocol 1 (24 h test compound, then 24 h 5 ug/ml Con A), Conc. 55.9 umol/L with Con A): 109.5%

NC(=O)N1c2ccccc2C=Cc2ccccc21 [Molecule 14]
Percent Activation Over control value (MT-MMP [1]; Conc. 1.27 umol/L): 7.7%
Percent Activation Over control value (MT-MMP [1]; Conc. 63.49 umol/L): 115.6%

NCCCCCCNS(=O)(=O)c1cccc2c(Cl)cccc12 [Molecule W-7]
MT1-MMP-induced activation of Gelatinase A (GelA) (MT1-MMP [3]): not particularly pronounced

CCCCCCCCCCCCCC(=O)O[C@@H]1[C@@H](C)[C@@]2(O)[C@@H](C=C(CO)C[C@]3(O)C(=O)C(C)=C[C@@H]23)[C@@H]2C(C)(C)[C@]12OC(C)=O [phorbol ester, phorbol 12-myristate 13-acetate]
Expression of MT1-MMP (MT1-MMP [4]): increased expression of MT1-MMP

CN1CCN(CCCN2c3ccccc3Sc3ccc(C(F)(F)F)cc32)CC1 [trifluoperazine]
MT1-MMP-induced activation of Gelatinase A (GelA) (MT1-MMP [3]): resulted in MT1-MMP-induced activation of Gelatinase A

Concanavalin A [Con A, reference compound]
Increased expression of MT-MMP on Con A stimulation (response) (MT-MMP [1]; measured by magnitude of zymographic bands and by thiopeptolide assay): dose-dependent
